Target: human TLR7 (Homo sapiens (Human), UniProt Q9NYK1)
Assay: Test for evaluating the inhibition of the activation of human TLR7 (SEAP reporter, TLR7/NF-κB/SEAPorter HEK293 cell)
Assay type: cell-based
Details: R-848 200 nmol/L; for inhibitory effect against TLR7 in the test for evaluating inhibition of the activation of TLR7: SEAP activity, result in words; for IC50: SEAP reporter
Method in brief: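 HEK293 cells stably expressing full-length human TLR7 and an NF-κB-driven SEAP reporter. They were grown in DMEM with 10% FBS and blasticidin, and seeded at 5×10^4 cells/well overnight at 37° C, 5% CO2. Inhibition of TLR7 activation was read as SEAP output.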

human TLR7, sequence (Q9NYK1 27-1049): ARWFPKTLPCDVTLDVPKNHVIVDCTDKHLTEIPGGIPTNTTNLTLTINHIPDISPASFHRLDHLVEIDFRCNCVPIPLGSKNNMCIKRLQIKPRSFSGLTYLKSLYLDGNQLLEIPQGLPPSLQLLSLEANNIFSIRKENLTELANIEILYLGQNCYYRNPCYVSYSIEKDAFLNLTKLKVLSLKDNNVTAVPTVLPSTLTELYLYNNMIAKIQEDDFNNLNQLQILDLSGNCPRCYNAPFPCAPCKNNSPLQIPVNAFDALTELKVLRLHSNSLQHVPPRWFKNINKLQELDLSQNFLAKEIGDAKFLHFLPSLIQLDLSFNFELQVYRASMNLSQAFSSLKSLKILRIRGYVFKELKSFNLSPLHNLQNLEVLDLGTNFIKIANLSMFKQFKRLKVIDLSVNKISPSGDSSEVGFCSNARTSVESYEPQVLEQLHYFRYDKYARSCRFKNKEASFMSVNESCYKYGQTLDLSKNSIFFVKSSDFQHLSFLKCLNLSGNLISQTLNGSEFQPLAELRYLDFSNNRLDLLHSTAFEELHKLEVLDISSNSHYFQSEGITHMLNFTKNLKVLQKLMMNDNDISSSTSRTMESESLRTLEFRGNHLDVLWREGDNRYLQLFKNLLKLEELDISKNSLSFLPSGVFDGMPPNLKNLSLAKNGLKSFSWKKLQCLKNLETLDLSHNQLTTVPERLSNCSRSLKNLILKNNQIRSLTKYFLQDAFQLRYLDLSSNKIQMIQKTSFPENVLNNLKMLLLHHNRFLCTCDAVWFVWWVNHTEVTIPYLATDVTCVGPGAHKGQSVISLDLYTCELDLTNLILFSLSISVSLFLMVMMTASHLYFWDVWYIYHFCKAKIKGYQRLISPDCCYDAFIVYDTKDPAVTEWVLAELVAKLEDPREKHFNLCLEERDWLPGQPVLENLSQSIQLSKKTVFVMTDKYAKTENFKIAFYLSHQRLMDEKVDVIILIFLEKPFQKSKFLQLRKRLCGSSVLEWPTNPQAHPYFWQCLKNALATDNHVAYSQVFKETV

SMILES	inhibitory effect against TLR7 in the test for evaluating inhibition of the activation of TLR7	IC50
CCOc1nc(C)c2nc(-c3cncc(F)c3)n(Cc3ccc(CN(CC)CC)cc3)c2n1 [Example 266]	potent inhibitory effect against TLR7	29 nM
CCOc1nc(C)c2nc(-c3cncc(F)c3)n(Cc3ccc(O[C@H]4CN5CCC4CC5)nc3)c2n1 [Example 72]	potent inhibitory effect against TLR7	81 nM
CCOc1nc(C)c2nc(-c3cncc(F)c3)n(Cc3cnn(CC4CCNC4)c3)c2n1 (centres unmarked) [Example 271]		99 nM
COc1nc(C)c2nc(-c3cncc(F)c3)n(Cc3ccc(OCC4CN(C(=O)OC(C)(C)C)C4)cc3F)c2n1 [Example 419]		712 nM
COc1nc(C)c2nc(-c3cncc(C#N)c3)n(Cc3ccc(O[C@@H]4CN5CCC4CC5)cc3F)c2n1 [Example 322, 5-(9-{4-[(3S)-1-azabicyclo[2.2.2]oct-3-yloxy]-2-fluorobenzyl}-2-methoxy-6-methyl-9H-purin-8-yl)pyridine-3-carbonitrile]	potent inhibitory effect against TLR7	13 nM
CCOc1nc(N)c2nc(-c3cncc(F)c3)n(Cc3ccc(O[C@H]4CN5CCC4CC5)nc3)c2n1 [Example 41]		140 nM
COc1nc(C)c2nc(-c3cccnc3)n(Cc3ccc(C4CN5CCC4CC5)cc3F)c2n1 (centres unmarked) [Example 303, 9-[4-(1-azabicyclo[2.2.2]oct-3-yl)-2-fluorobenzyl]-2-methoxy-6-methyl-8-(pyridin-3-yl)-9H-purine]	potent inhibitory effect against TLR7	7 nM
CCCCOc1nc(N)c2nc(-c3cncc(F)c3)n(Cc3ccc(CN(C)C)cc3)c2n1 [Example 82]		400 nM
COc1nc(C)c2nc(-c3cccnc3)n(Cc3ccc(OC4CC5CCC(C4)N5C)cc3F)c2n1 (stereo not drawn) [Example 297, 9-(2-fluoro-4-{[(3-endo)-8-methyl-8-azabicyclo[3.2.1]oct-3-yl]oxy}benzyl)-2-methoxy-6-methyl-8-(pyridin-3-yl)-9H-purine]	potent inhibitory effect against TLR7	50 nM
COc1nc(C)c2nc(-c3cncc(F)c3)n(Cc3cccc(C4=CN5CCC4CC5)c3)c2n1 [Example 364]		11 nM
CCOc1nc(N)c2nc(-c3cncc(F)c3)n(Cc3ccc(O[C@@H]4CCN(C)C4)nc3)c2n1 [Example 38]		520 nM
COCCOc1nc(N)c2nc(-c3cncc(S(C)(=O)=O)c3)n(Cc3ccc(CN(C)C)cc3)c2n1 [Example 181]		19700 nM
CCOc1nc(N)c2nc(-c3cncc(F)c3)n(Cc3ccc(COCCN(C)C)cc3)c2n1 [Example 140, 9-(4-{[2-(Dimethylamino)ethoxy]methyl}benzyl)-2-ethoxy-8-(5-fluoropyridin-3-yl)-9H-purine-6-amine]		120 nM
COc1nc(C)c2nc(-c3cncc(F)c3)n(Cc3ccc(OCC4CNC4)cc3F)c2n1 [Example 434]		90 nM
CCOc1nc(N)c2nc(-c3cncc(F)c3)n(Cc3ccc(O[C@@H]4CN5CCC4CC5)cc3)c2n1 [Example 66, 9-{4-[(3S)-1-Azabicyclo[2.2.2]oct-3-yloxy]benzyl}-2-ethoxy-8-(5-fluoropyridin-3-yl)-9H-purine-6-amine]	potent inhibitory effect against TLR7	21 nM
COc1nc(C)c2nc(-c3cncc(F)c3)n(Cc3ccc(C4CN5CCC4CC5)c(F)c3)c2n1 (centres unmarked) [Example 377, 9-[4-(1-azabicyclo[2.2.2]oct-3-yl)-3-fluorobenzyl]-8-(5-fluoropyridin-3-yl)-2-methoxy-6-methyl-9H-purine]	potent inhibitory effect against TLR7	7 nM
COc1nc(C)c2nc(-c3ccc(C)nc3)n(Cc3ccc(C4CN5CCC4CC5)cc3F)c2n1 (centres unmarked) [Example 306]	potent inhibitory effect against TLR7	40 nM
CCCCOc1nc(N)c2nc(-c3cnn(C)c3)n(Cc3ccccc3)c2n1 [Example 8]		9300 nM

Source: patent publication US10703755B2, “Substituted purine derivative” (SUMITOMO DAINIPPON PHARMA CO., LTD., priority 2016, dated 2020)
